What was measured:
[1] = test system: human PBMCs; test: Human PBMC TNF-α response to endotoxin (ELISA); format: cell-based; details: 0.1 μg/ml LPS 16 h, read-out: EC50 for the inhibition of the human PBMC TNF-α response to endotoxin, ave. ± S.D.
How it was run: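 PBMCs at 2e6 cells/ml in RPMI 1640 with 10% charcoal-dextran-treated FBS were pre-treated 1 h at 37 °C with compound (4-point 1:5 dilution from 10 μM). Stimulation with 0.1 μg/ml E. coli 0111:B4 LPS for 16 h; TNF-α measured by ELISA (A450) in 25-fold diluted supernatant.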

[2] = target: T1, ERK5 (Homo sapiens, UniProt Q13164); test: Probe-based (AX9989 acyl phosphate ATP probe) kinase profiling in Jurkat lysate: ERK5; format: binding; details: for IC50: calculated from percent inhibition of AX9989 labeling and the screening concentration, Jurkat lysate; for inhibition at 1 µM: screening concentration 1.0 μM; for inhibition at 1 µM / inhibition at 0.1 µM: read-out: Kinase inhibition % at indicated screening concentration: ERK5; for inhibition at 0.1 µM: screening concentration 0.1 μM
T1 construct: screened for activity against several kinases in Jurkat cells; endogenous in cells; host or cells: Jurkat cell lysate
How it was run: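 Gel-filtered Jurkat lysate (5 mg/ml, 20 mM MnCl2) preincubated 15 min at room temperature with compound, then labelled with 5 μM AX9989 acyl phosphate ATP probe. Probe-labelled ERK5 active-site peptides quantified by LC/MS after trypsin digestion and streptavidin capture; IC50 calculated from percent inhibition at the screening concentration.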

[3] = target: T2, TAO2 (Homo sapiens, UniProt Q9UL54); test: Probe-based (AX9989) kinase profiling in Jurkat lysate: TAO2; format: binding; details: read-out: Kinase inhibition % at indicated screening concentration: TAO2; for inhibition at 1 µM: screening concentration 1.0 μM; for inhibition at 0.1 µM: screening concentration 0.1 μM
T2 construct: screened for activity against several kinases in Jurkat cells; endogenous in cells; host or cells: Jurkat cell lysate
T2 sequence (Q9UL54 1-1235): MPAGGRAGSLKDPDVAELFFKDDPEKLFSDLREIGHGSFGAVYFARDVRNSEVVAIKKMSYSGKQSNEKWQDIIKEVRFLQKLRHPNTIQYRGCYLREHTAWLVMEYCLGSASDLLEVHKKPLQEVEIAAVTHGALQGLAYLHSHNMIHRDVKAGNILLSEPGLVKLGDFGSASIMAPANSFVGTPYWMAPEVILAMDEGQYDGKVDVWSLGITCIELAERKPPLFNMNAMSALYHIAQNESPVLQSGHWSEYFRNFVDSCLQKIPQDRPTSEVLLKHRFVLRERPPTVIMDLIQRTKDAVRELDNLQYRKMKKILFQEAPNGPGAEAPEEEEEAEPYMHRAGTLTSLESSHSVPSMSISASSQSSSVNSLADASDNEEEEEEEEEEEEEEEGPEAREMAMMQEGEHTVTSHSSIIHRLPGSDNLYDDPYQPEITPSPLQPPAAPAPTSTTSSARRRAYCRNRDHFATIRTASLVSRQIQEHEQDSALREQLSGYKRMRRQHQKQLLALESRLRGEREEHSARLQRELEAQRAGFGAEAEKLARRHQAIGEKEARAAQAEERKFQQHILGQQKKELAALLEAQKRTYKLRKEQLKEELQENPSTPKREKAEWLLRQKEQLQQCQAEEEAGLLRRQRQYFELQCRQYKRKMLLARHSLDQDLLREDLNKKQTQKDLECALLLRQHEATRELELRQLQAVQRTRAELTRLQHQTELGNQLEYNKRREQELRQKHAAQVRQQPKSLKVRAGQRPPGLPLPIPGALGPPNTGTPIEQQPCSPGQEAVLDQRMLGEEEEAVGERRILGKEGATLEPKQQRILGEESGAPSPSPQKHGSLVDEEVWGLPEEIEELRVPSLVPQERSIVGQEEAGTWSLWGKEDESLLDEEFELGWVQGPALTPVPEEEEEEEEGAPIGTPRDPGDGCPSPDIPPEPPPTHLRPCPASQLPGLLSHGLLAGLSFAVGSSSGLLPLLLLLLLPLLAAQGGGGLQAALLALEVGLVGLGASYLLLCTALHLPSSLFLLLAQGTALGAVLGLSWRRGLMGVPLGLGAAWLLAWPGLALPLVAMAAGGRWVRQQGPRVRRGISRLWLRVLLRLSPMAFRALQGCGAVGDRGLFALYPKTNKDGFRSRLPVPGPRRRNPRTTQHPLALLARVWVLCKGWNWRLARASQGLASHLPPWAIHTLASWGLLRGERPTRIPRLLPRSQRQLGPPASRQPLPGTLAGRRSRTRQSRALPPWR
How it was run: (§1)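 Compounds were pre-incubated for 15 min at room temperature with gel-filtered Jurkat cell lysate supplemented with 20 mM MnCl2, after which the acyl phosphate ATP probe AX9989 was added at 5 μM final. Labeled active-site peptides were enriched after tryptic digestion and measured by LC/MS, with percent inhibition taken relative to samples without compound.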

[4] = target: T3, ACK (Homo sapiens, UniProt Q07912); test: Probe-based (AX9989) kinase profiling in Jurkat lysate: ACK; format: binding; details: read-out: Kinase inhibition % at indicated screening concentration: ACK; for inhibition at 1 µM: screening concentration 1.0 μM; for inhibition at 0.1 µM: screening concentration 0.1 μM
T3 construct: screened for activity against several kinases in Jurkat cells; endogenous in cells; host or cells: Jurkat cell lysate
How it was run: as §1

[5] = test system: ABL or ARG; test: Probe-based (AX9989) kinase profiling in Jurkat lysate: ABL or ARG; format: binding
How it was run: as §1

T1 sequence (Q13164 whole entry): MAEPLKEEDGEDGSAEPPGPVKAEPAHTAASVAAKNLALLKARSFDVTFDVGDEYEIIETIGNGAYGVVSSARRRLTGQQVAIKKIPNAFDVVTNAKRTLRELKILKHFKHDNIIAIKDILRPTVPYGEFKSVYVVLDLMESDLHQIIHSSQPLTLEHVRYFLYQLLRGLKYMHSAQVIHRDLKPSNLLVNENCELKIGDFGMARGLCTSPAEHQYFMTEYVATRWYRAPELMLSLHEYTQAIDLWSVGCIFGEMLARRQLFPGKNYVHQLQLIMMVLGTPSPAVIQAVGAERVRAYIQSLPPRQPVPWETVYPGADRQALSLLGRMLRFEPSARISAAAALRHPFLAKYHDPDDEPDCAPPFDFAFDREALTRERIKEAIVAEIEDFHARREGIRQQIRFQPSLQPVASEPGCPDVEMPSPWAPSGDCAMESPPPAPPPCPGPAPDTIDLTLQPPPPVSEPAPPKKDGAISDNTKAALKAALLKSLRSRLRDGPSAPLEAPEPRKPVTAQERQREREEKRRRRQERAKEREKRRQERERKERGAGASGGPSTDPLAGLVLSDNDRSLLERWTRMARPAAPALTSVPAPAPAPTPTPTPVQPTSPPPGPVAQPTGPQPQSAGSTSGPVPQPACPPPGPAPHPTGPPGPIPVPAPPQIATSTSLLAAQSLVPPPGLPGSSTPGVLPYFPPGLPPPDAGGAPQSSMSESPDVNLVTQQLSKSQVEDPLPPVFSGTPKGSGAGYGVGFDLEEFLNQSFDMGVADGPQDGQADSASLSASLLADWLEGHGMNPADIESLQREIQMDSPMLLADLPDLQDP
T3 sequence (Q07912 whole entry): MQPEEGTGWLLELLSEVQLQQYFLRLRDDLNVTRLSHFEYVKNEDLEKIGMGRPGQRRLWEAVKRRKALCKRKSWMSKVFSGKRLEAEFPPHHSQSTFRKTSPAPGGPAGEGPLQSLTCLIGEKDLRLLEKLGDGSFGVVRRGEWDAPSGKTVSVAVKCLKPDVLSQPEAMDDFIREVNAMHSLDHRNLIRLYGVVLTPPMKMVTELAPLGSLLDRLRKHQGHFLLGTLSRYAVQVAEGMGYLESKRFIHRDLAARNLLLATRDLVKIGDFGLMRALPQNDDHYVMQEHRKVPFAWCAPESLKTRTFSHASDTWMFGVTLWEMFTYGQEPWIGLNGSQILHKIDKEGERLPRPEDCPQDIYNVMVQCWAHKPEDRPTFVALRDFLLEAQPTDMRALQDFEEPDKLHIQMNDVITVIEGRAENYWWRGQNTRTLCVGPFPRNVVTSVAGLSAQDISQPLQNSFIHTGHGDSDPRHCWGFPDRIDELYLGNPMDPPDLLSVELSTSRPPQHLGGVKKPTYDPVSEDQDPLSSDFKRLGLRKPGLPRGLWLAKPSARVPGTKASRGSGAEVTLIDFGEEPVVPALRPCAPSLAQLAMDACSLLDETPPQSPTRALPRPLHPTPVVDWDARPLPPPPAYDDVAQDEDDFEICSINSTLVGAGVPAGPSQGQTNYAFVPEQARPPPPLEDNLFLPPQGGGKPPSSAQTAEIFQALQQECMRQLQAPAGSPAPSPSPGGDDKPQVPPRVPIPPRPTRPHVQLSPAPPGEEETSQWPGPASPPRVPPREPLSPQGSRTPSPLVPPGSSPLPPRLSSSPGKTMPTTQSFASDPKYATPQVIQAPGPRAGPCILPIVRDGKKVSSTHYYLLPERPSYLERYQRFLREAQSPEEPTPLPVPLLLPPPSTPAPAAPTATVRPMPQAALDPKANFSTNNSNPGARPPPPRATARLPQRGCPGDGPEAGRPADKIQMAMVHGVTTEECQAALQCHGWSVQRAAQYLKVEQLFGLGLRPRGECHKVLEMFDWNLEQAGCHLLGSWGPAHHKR

Structure (SMILES) | IC50 [2] [nM] | inhibition at 1 µM [2] [%] | inhibition at 1 µM [3] [%] | inhibition at 1 µM [4] [%] | Kinase inhibition % at indicated screening concentration: ABL or ARG ([5]; screening concentration 1.0 μM) | inhibition at 0.1 µM [2] [%] | inhibition at 0.1 µM [3] [%] | inhibition at 0.1 µM [4] [%] | Kinase inhibition % at indicated screening concentration: ABL or ARG ([5]; screening concentration 0.1 μM) | EC50 [1] [nM]
CCOc1cc(C(=O)N2CCCCC2)ccc1Nc1cc2c(cn1)N(C)C(=O)c1ccccc1N2C [Compound 12] | 101 to 500 | 75 to 90 | ≤ 35 | ≤ 35 | E (E is ≦35%) |  |  |  |  | 630
CCOc1cc(C(=O)N2CCC(N3CCCC3)C2)ccc1Nc1cc2c(cn1)N(C)C(=O)c1occc1N2C (stereo not drawn) [Compound 15] | ≤ 50 |  |  |  |  | 75 to 90 | ≤ 35 | ≤ 35 | E (E is ≦35%) | 490 ± 30
CCOc1cc(C(=O)N2CC[C@H](O)C2)ccc1Nc1cc2c(cn1)N(C)C(=O)c1occc1N2C [Compound 17] | ≤ 50 |  |  |  |  | 75 to 90 | ≤ 35 | ≤ 35 | E (E is ≦35%) | 2230
C=CCN1CCN(C(=O)c2ccc(Nc3cc4c(cn3)N(C)C(=O)c3ccccc3N4C)c(OCC)c2)CC1 [Compound 21] | ≤ 50 |  |  |  |  | 75 to 90 | ≤ 35 | ≤ 35 | E (E is ≦35%) | 1220
CCOc1cc(C(=O)N2CC[C@@H](N3CCCC3)C2)ccc1Nc1cc2c(cn1)N(C)C(=O)c1ccccc1N2C [Compound 24] | ≤ 50 |  |  |  |  | > 90 | ≤ 35 | ≤ 35 | E (E is ≦35%) | 910
CCOc1cc(C(=O)N2CC[C@@H](N(C)C)C2)ccc1Nc1cc2c(cn1)N(C)C(=O)c1occc1N2C [Compound 25] | ≤ 50 |  |  |  |  | > 90 | ≤ 35 | ≤ 35 | E (E is ≦35%) | 1170 ± 70
CCOc1cc(C(=O)N(C)CCN2CCCC2)ccc1Nc1cc2c(cn1)N(C)C(=O)c1ccccc1N2C [Compound 28] | 50 to 100 |  |  |  |  | > 90 | ≤ 35 | ≤ 35 | E (E is ≦35%) | 480
CCOc1cc(C(=O)N(C)CCn2ccnc2)ccc1Nc1cc2c(cn1)N(C)C(=O)c1ccccc1N2C [Compound 30] | ≤ 50 |  |  |  |  | 75 to 90 | ≤ 35 | ≤ 35 | E (E is ≦35%) | 1260 ± 170

Now from value to compound, other results behind:

IC50 [2] [nM] | inhibition at 1 µM [2] [%] | inhibition at 1 µM [3] [%] | inhibition at 1 µM [4] [%] | Kinase inhibition % at indicated screening concentration: ABL or ARG ([5]; screening concentration 1.0 μM) | inhibition at 0.1 µM [2] [%] | inhibition at 0.1 µM [3] [%] | inhibition at 0.1 µM [4] [%] | Kinase inhibition % at indicated screening concentration: ABL or ARG ([5]; screening concentration 0.1 μM) | Structure (SMILES) | EC50 [1] [nM]
≤ 50 |  |  |  |  | 75 to 90 | ≤ 35 | ≤ 35 | E (E is ≦35%) | CCOc1cc(C(=O)N2CCNC[C@@H]2C)ccc1Nc1cc2c(cn1)N(C)C(=O)c1ccccc1N2C [Compound 31] | 1250
≤ 50 |  |  |  |  | 75 to 90 | ≤ 35 | ≤ 35 | E (E is ≦35%) | CCOc1cc(C(=O)N2CCN(CCO)CC2)ccc1Nc1cc2c(cn1)N(C)C(=O)c1ccccc1N2C [Compound 37] | 960
≤ 50 |  |  |  |  | 50 to 75 | ≤ 35 | ≤ 35 | E (E is ≦35%) | CCOc1cc(C(=O)N2CCN(C3CC3)CC2)ccc1Nc1cc2c(cn1)N(C)C(=O)c1ccccc1N2C [Compound 39] | 1770
≤ 50 | > 90 | ≤ 35 | ≤ 35 | E (E is ≦35%) |  |  |  |  | CCOc1cc(C(=O)N2CCC(N3CCN(C)CC3)CC2)ccc1Nc1cc2c(cn1)N(C)C(=O)c1ncccc1N2C [Compound 40] | > 10000
≤ 50 | > 90 | ≤ 35 | ≤ 35 | E (E is ≦35%) |  |  |  |  | CCOc1cc(C(=O)N(C)CCN(CC)CC)ccc1Nc1cc2c(cn1)N(C)C(=O)c1ccccc1N2C [Compound 42] | 650
≤ 50 |  |  |  |  | > 90 | ≤ 35 | ≤ 35 | E (E is ≦35%) | CCOc1cc(C(=O)N2CCC(NC)C2)ccc1Nc1cc2c(cn1)N(C)C(=O)c1occc1N2C (stereo not drawn) [Compound 43] | 1480
101 to 500 | 75 to 90 | ≤ 35 | ≤ 35 | E (E is ≦35%) |  |  |  |  | CCOc1cc(C(=O)NCCN2CCN(C)CC2)ccc1Nc1cc2c(cn1)N(C)C(=O)c1ccccc1N2C [Compound 44] | 590
101 to 500 | 75 to 90 | ≤ 35 | ≤ 35 | E (E is ≦35%) |  |  |  |  | CN1C(=O)c2ccccc2N(C)c2cc(N[C@H]3CC[C@H](NC4=NCCO4)CC3)ncc21 [Compound 45] | 1580

From US20170008888A1 (KYORIN PHARMACEUTICAL CO., LTD., priority 2014, published 2017)
